Experimental data: patent US20210215710A1, “METHODS FOR USE OF CDX2 AS A BIOMARKER TO GUIDE USE OF AUTOPHAGY INHIBITORS IN OVARIAN CANCER” (UNIVERSITY HEALTH NETWORK, priority 2019, published 2021)

Assays:
[1] = test system: Cdx2-expressing cells; assay: Expression of autophagy genes after chloroquine in Cdx2-expressing cells; type: cell-based
[2] = test system: OVCA429 CDX2; assay: cells; details: Homo sapiens, OVCA429, 48 h, read-out: 48 h IC50 CQ in adherent culture
From the text: (§1) FIG. 7 depicts bar graphs that illustrate the results of an OVCA429 soft agar assay. […] This confirms the effect in human high grade serous ovarian cancer cells. […] CDX2(−) at left. […] P<0.005.

[3] = test system: OVCA429 GAL (CDX2(−)); assay: cells; details: Homo sapiens, OVCA429, 48 h, read-out: 48 h IC50 CQ in adherent culture
From the text: as §1

[4] = test system: CDX2(+) derived cell lines D4 and B2; assay: Long-term nutritional deprivation, cellular survival of cell colonies in vitro; type: cell-based
From the text: FIG. 6A depicts bar graphs that illustrate the long-term effect of nutritional deprivation on cellular survival in CDX2(−) and CDX2(+) cell colonies in vitro and the effect of treatment with autophagy inhibitors. […] P<0.001.

[5] = test system: CDX2(+) ovarian tumours in mice; assay: Survival of mice with ovarian tumours treated with chloroquine; type: in vivo, mouse; details: chloroquine 10 mg/kg 3 times a week, initiated 30 days after delivery of tumor cells
From the text: For all experiments aged females (9-10 month) were used, as these represent targeted patient population (e.g., peri-menopausal women). Mice were sacrificed when ascites formed.

[6] = test system: CDX2(+) ovarian cancer cells; assay: Hanging drop assay under starvation conditions; type: cell-based, mouse
From the text: FIG. 3A depicts a CDX2(−) parental control. FIGS. 3B and 3C depict CDX2(+) derived cell lines. The mouse ovarian cancer cell line MOSEC5 that is CDX2(−) was genetically modified to create CDX2(+) derived cell lines. Cells were placed in a “hanging drop” assay under starvation conditions.

Row | Structure (SMILES) | LAM P1 gene expression [1] | NPC gene expression [1] | SQSTM1 gene expression [1] | ULK2 gene expression [1] | WIPI1 gene expression [1] | IC50 [2] | IC50 [3] | survival of CDX2(+) cells after long-term stress [4] | survival of mice [5] | survival of mice ([5]; listed as Chloroquine) | cancer cell survival [6] | inhibition of autophagy [6]
1 | CCN(CC)CCCC(C)Nc1ccnc2cc(Cl)ccc12 (stereo not shown) [chloroquine] | down-regulated | significantly up-regulated | significantly up-regulated | down-regulated | significantly up-regulated | 9.3 µM | 11.5 µM | reverse this survival | prolongs survival of mice with ovarian tumours | improved survival in CDX2(+) mice | reduce cancer cell survival | did inhibit autophagy
2 | Cn1cnc(N)c2ncnc1-2 [3-methyladenine] |  |  |  |  |  |  |  | reverse this survival |  |  |  | 
